Assay results: ChEMBL document CHEMBL5385900, “New insights in the development of positive allosteric modulators of α-amino-3-hydroxy-5-methyl-4-isoxazolepropionic acid (AMPA) receptors belonging to 3,4-dihydro-2H-1,2,4-benzothiadiazine 1,1-dioxides: Introduction of (mono/difluoro)methyl groups at the 2-position of the thiadiazine ring” (Eur J Med Chem, 2023)
Active and inactive are the calls of the source. The rule behind the calls is not given here.

Assays:
[1] = target: T1, Glutamate receptor ionotropic, AMPA (Rattus norvegicus) (UniProt P19491+P19492+P19493+P19490); assay: Positive allosteric modulation at AMPAR in rat primary cortical cells assessed as concentration required for 2 fold increase in AMPA induced current amplitude by FlipR assay; format: cell-based; details: Primary cortical neuron, filed as positive allosteric modulator
[2] = target: T1, Glutamate receptor ionotropic, AMPA (Rattus norvegicus); assay: Positive allosteric modulation at AMPAR in rat primary cortical cells assessed as concentration required for 2 fold increase in AMPA induced current amplitude by FDSS fluorescence assay; format: cell-based; details: Primary cortical neuron, filed as positive allosteric modulator
[3] = target: Glutamate receptor ionotropic AMPA (Homo sapiens, UniProt P42261+P42262+P42263+P48058); assay: Positive allosteric modulation at AMPAR in HEK293 cells expressing GluA2Q assessed as glutamate induced calcium influx; format: cell-based
[4] = target: T1, Glutamate receptor ionotropic, AMPA (Rattus norvegicus); assay: Positive allosteric modulation at AMPAR in rat hippocampal assessed as increase in AMPA induced noradrenaline release; parameters: concentration or dose not given beside the values
[5] = target: T1, Glutamate receptor ionotropic, AMPA (Rattus norvegicus); assay: Positive allosteric modulation at AMPAR in rat hippocampal assessed as increase in AMPA induced noradrenaline release by measuring concentration required for 2 fold increase in noradrenaline release; details: filed as positive allosteric modulator
[6] = Toxicity in NMR1 mouse assessed as pro-convulsant effect at 30 mg/kg, po; format: organism-based; details: in vivo
[7] = Toxicity in NMR1 mouse assessed as pro-convulsant effect at 100 mg/kg, po; format: organism-based; details: in vivo
Rattus norvegicus = assay: Cognition enhancing effect in Wistar rat assessed as increase in long-term potentiation of synaptic response at 10 mg/kg, ip pretreated for 1 hr followed by tetanic stimulation and measured for 3 hrs; format: functional, organism-based; details: time 4.0 hrs
Mus musculus [8] = assay: Cognition enhancing effect in CD1 mouse assessed as increase in exploration time for novel object at 1 mg/kg, po after 1 hr by object recognition test (reference value: 40%); format: functional
Mus musculus [9] = assay: Cognition enhancing effect in CD1 mouse assessed as increase in exploration time for novel object at 3 mg/kg, po after 1 hr by object recognition test (reference value: 40%); format: functional
[10] = target: Glutamate receptor ionotropic AMPA (Homo sapiens) (UniProt P48058+P42263+P42262+P42261); assay: Positive allosteric modulation at AMPAR in HEK293 cells expressing GluA2Q assessed as glutamate induced calcium influx relative to control; format: cell-based; details: filed as positive allosteric modulator
Mus musculus [11] = assay: Cognition enhancing effect in C57BL/6 mouse assessed as increase in performance of spontaneous alteration at 0.1 mg/kg, ip after 1 hr by T-maze test; format: functional, organism-based
Mus musculus [12] = assay: Cognition enhancing effect in C57BL/6 mouse assessed as increase in performance of spontaneous alteration at 0.3 mg/kg, ip after 1 hr by T-maze test; format: functional, organism-based
[13] = filed as positive allosteric modulator

Row | SMILES | EC [1] [µM] | EC [2] [µM] | EC50 [3] [µM] | Activity [4, 13] [%] | further results
1 | O=S1(=O)c2cc(Cl)ccc2N(C2CC2)CN1CF | 2.1 | 1.5 | 2.19 | 394 | EC [5]: 5 µM; Activity [6]: Non-Toxic; Activity [7]: Non-Toxic; Activity (Rattus norvegicus): Active; Activity (Mus musculus [8]): 64%; Activity (Mus musculus [9]): 78%; Emax [10]: 90%; Activity (Mus musculus [11]): Active
2 | O=S1(=O)c2cc(Cl)ccc2N(C2CC2)CN1C(F)F | – | 6 | > 100 | 340 | –
3 | CC1N(C)c2ccc(Cl)cc2S(=O)(=O)N1C (centres undefined) | 4.3 | 0.8 | 81.3 | 112 | –
4 | CC1N(C2CC2)c2ccc(Cl)cc2S(=O)(=O)N1C (centres undefined) | 65 | – | > 100 | – | Activity [4]: < 100%
5 | CC1N(C2CC2)c2ccc(Cl)cc2S(=O)(=O)N1CF (centres undefined) | 2.5 | – | 2.14 | 329 | –
6 | CCN1c2ccc(Cl)cc2S(=O)(=O)N(CC)C1C (centres undefined) | – | 12.2 | > 100 | – | Activity [4]: < 100%
7 | CCN1c2ccc(Cl)cc2S(=O)(=O)N(C)C1C (centres undefined) | 6.2 | – | 31.6 | 103 | –
8 | CN1CN(C2CC2)c2ccc(Cl)cc2S1(=O)=O | 13.4 | – | > 100 | – | –
9 | O=S1(=O)NCN(C2CC2)c2ccc(Cl)cc21 | 2.2 | 0.7 | 0.794 | 311 | EC [5]: 4.5 µM; Activity [6]: Non-Toxic; Activity (Rattus norvegicus): Active; Activity (Mus musculus [8]): 82%; Activity (Mus musculus [9]): 79%; Emax [10]: 100%; Activity (Mus musculus [12]): Active
10 | CN1CN(C2CC2)c2ccc(F)cc2S1(=O)=O | 9.3 | – | 57.5 | – | Activity [4]: < 100%
11 | O=S1(=O)c2cc(F)ccc2N(C2CC2)CN1C(F)F | 6.9 | – | 16.6 | 345 | –
12 | CC1N(C)c2ccc(F)cc2S(=O)(=O)N1C (centres undefined) | 4.1 | – | 15.1 | 167 | –
13 | O=S1(=O)c2cc(F)ccc2N(C2CC2)CN1CF | 0.6 | – | 0.282 | 427 | –
14 | O=S1(=O)NCN(C2CC2)c2ccc(F)cc21 | 0.2 | 0.3 | 0.275 | 230 | –
15 | CC1N(C2CC2)c2ccc(F)cc2S(=O)(=O)N1C (centres undefined) | 70.9 | – | > 100 | – | Activity [4]: < 100%
16 | CCN1C(C)N(C)c2ccc(Cl)cc2S1(=O)=O (centres undefined) | – | 11.2 | > 100 | – | Activity [4]: < 100%
17 | CCN1c2ccc(F)cc2S(=O)(=O)N(C)C1C (centres undefined) | – | 1.4 | 8.71 | 135 | –
